Experimental data as given in paper PMC6835155, “Lessons from LIMK1 enzymology and their impact on inhibitor design” (Biochemical Journal, 2019).
Structures can show the parent of a compound that is named as a salt. Where two headings read alike, the source gives them in different places.

Legend:
[1] = molecular target: T1, LIMK1KD (Homo sapiens, UniProt P53667); assay: Differential (dynamic) scanning fluorimetry (DSF) assay, LIMK1KD; type: binding; settings: 2 µM LIMK1KD, compound 10 µM, single shot; for ΔTm at 10 µM: read-out: TM Shift LIMK1 (K)
T1 construct: His6 (N, cleaved yes); made in house; host or cells: baculovirus; Sf9 for virus, TriEx insect cells for expression

[2] = molecular target: T2, LIMK2KD (Homo sapiens, UniProt P53671); assay: Differential (dynamic) scanning fluorimetry (DSF) assay, LIMK2KD; type: binding; settings: for ΔTm at 10 µM: read-out: TM Shift LIMK2 (K)
T2 construct: The cDNA coding for LIMK2 residues 330 to 632 was PCR amplified; His6 (N, cleaved yes); made in house; host or cells: baculovirus; Sf9 for virus, TriEx insect cells for expression

[3] = LIMK2KD, compound 10 µM, single shot
[4] = LIMK2KD, compound 10 µM, single shot, 10 µM

T1 sequence (P53667 330-637): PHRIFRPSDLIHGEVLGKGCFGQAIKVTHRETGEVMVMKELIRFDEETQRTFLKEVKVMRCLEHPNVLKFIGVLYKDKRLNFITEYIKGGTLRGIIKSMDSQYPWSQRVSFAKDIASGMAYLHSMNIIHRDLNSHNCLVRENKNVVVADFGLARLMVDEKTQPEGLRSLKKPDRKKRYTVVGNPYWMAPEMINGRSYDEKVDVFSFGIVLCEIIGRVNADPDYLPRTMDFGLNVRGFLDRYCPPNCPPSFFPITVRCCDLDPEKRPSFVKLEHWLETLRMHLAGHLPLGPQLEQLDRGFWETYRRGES
T2 sequence (P53671 330-632): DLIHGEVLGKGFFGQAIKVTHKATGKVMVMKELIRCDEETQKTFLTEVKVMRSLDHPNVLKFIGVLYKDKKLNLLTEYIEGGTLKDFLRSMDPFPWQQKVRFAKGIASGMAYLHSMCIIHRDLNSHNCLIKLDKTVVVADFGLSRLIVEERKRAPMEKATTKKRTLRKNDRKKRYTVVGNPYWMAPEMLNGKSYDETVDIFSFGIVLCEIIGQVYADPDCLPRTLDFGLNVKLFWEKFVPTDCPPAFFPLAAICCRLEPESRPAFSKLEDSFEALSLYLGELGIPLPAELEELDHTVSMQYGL

| ΔTm at 10 µM [1] [°C] | ΔTm at 10 µM [2, 3] [°C] | TM Shift LIMK1 (K) [1] [K] | TM Shift LIMK2 (K) [2, 3] [K] | SMILES | other results |
| --- | --- | --- | --- | --- | --- |
| 0.1 | 1.2 |  |  | CC(C)(C)c1cc(/C=C(\C#N)C(N)=S)cc(C(C)(C)C)c1O [Tyrphostin AG 879] |  |
|  |  | 0.5 |  | CC[C@H](Nc1ncnc2[nH]cnc12)c1nc2cccc(F)c2c(=O)n1-c1ccccc1 [Idelalisib] | TM Shift LIMK1 (K) ([1]; listed as CAL-101 (Idelalisib, GS-1101)): -0.1 K; TM Shift LIMK2 (K) [2, 4]: -0.8 K; TM Shift LIMK2 (K) ([2]; LIMK2KD, compound 10 µM, single shot, listed as CAL-101 (Idelalisib, GS-1101), 10 µM): 1.8 K |
| 1.9 | 1.4 |  |  | CCCNC(=O)Nc1ccc(Oc2ncnc3cc(OC)c(OC)cc23)cc1Cl [KRN 633] |  |
| -0.5 | 3.9 |  |  | O=c1sn(-c2cccc3ccccc23)c(=O)n1Cc1ccccc1 [Tideglusib] |  |
| -1.1 | 0 |  |  | CC(C)(O)CC(=O)NCCn1ccc2ncnc(Nc3ccc(Oc4cccc(C(F)(F)F)c4)c(Cl)c3)c21 [TAK-285] |  |
| 1.6 | 1 |  |  | CCS(=O)(=O)N1CC(CC#N)(n2cc(-c3ncnc4[nH]ccc34)cn2)C1 [Baricitinib] |  |
| 8.2 | 5.8 |  |  | Nc1nc(Nc2ccc(S(N)(=O)=O)cc2)nn1C(=O)c1c(F)cccc1F [JNJ-7706621] |  |
| 4.6 | 6 |  |  | Cc1cc(Nc2cc(N3CCN(C)CC3)nc(/C=C/c3ccccc3)n2)n[nH]1 [ENMD-2076] |  |
|  |  | -0.1 | -0.2 | c1cncc(CN2CCC(n3ncc4c(N5CCOCC5)nc(-c5ccc6[nH]ccc6c5)nc43)CC2)c1 [WAY-600] |  |
| 1.1 | 0.8 |  |  | C[C@@H](Oc1cc(-n2cnc3ccc(CN4CCN(C)CC4)cc32)sc1C(N)=O)c1ccccc1C(F)(F)F [GSK461364] |  |
| 0.8 | 0.3 |  |  | CN(C[C@@H]1COCCO1)S(=O)(=O)Nc1ccc2ccc3ncc(-c4cnn(C)c4)cc3c(=O)c2c1 [MK-2461] |  |
| 0.6 | 1.2 |  |  | CN1CCN(c2nc(C3=C(c4c[nH]c5ccccc45)C(=O)NC3=O)c3ccccc3n2)CC1 [Sotrastaurin] |  |
|  |  | 3.3 | 2.4 | Cc1ccc([N+](=O)[O-])cc1S(=O)(=O)N(C)/N=C/c1cnc2ccc(Br)cn12 [PIK-75] |  |
|  |  | 7.0 | 2.1 | O=C(c1ccc(Nc2nccc(-c3cc4ccccc4s3)n2)cc1)N1CCC(N2CCCC2)CC1 [IKK-16 (IKK Inhibitor VII)] |  |
|  |  | 0.6 | 1.6 | CCCCCCCCCCCCc1ccc(S(=O)(=O)Nc2nncs2)cc1 [PHT-427] |  |
| 0.4 | -0.8 |  |  | CCC(=O)Nc1cccc(Oc2nc(Nc3ccc(N4CCN(C)CC4)cc3OC)ncc2Cl)c1 [WZ4003] |  |
| 1.3 | -0.8 |  |  | Nc1ncnc2c1c(COc1cccc(Cl)c1)nn2C1CCOCC1 [PF-4800567] |  |
|  |  | 2.4 | 3.1 | Cc1cnc(Nc2ccc(N3CCN(C)CC3)cc2)nc1Nc1cccc(S(=O)(=O)NC(C)(C)C)c1 [TG101209] |  |
|  |  | -1.0 | 0.7 | CCC[C@H](NC(=O)/C(C#N)=C/c1cccc(Br)n1)c1ccccc1 [Degrasyn (WP1130), Degrasyn] |  |
| 0.4 | 0 |  |  | Cc1ccc(NC(=O)c2ccc(CN3CCN(C)CC3)cc2)cc1Nc1nc(-c2cccnc2)cs1 [Masitinib (AB1010), Masitinib] |  |
| 1 | 4.1 |  |  | CC(C)CC(=O)Nc1[nH]nc2c1CN(C(=O)C1CCN(C)CC1)C2(C)C [PHA-793887] |  |
|  |  | -1.1 | -0.7 | Nc1ccc(-c2ccc3ncc4ccc(=O)n(-c5cccc(C(F)(F)F)c5)c4c3c2)cn1 [Torin 2] |  |
|  |  | 1.4 | 1.0 | COc1ccc(CNC(=O)Nc2ncc([N+](=O)[O-])s2)cc1 [AR-A014418] |  |
|  |  | 2.3 |  | CC(C)NC[C@@H](C(=O)N1CCN(c2ncnc3c2[C@H](C)C[C@H]3O)CC1)c1ccc(Cl)cc1 [Ipatasertib] | TM Shift LIMK2 (K) [2, 4]: 2.3 K |
| 0.8 | 0 |  |  | COc1cc2c(N3CCN(C(=O)Nc4ccc(OC(C)C)cc4)CC3)ncnc2cc1OCCCN1CCCCC1 [Tandutinib (MLN518), Tandutinib] |  |
|  |  | -0.7 | 3.0 | O=c1cc(N2CCOCC2)oc2c1ccc1ccccc12 [NU7026] |  |
| 3.1 | -0.3 |  |  | Cc1c[nH]c(-c2cnc(NCCNc3ccc(C#N)cn3)nc2-c2ccc(Cl)cc2Cl)n1 [CHIR-99021 (CT99021) HCl] |  |

| ΔTm at 10 µM [1] [°C] | ΔTm at 10 µM [2, 3] [°C] | TM Shift LIMK1 (K) [1] [K] | TM Shift LIMK2 (K) [2, 3] [K] | SMILES | other results |
| --- | --- | --- | --- | --- | --- |
| -0.2 | 0.5 |  |  | COc1cc2c(Oc3ccc4[nH]c(C)cc4c3F)ncnc2cc1OCCCN1CCCC1 [Cediranib (AZD2171), Cediranib] |  |
| 3.8 | -0.2 |  |  | CCOc1ccn(-c2ccc(F)cc2)c(=O)c1C(=O)Nc1ccc(Oc2ccnc(N)c2Cl)c(F)c1 [BMS-777607] |  |
|  |  | -0.1 | 1.5 | COc1cc2nccc(Oc3ccc(NC(=O)Nc4ccc(F)cc4F)c(F)c3)c2cc1OC [Ki8751] |  |
| -1.4 | 1.3 |  |  | CC(C)(C)c1cc(NC(=O)Nc2ccc(-c3cn4c(n3)sc3cc(OCCN5CCOCC5)ccc34)cc2)no1 [Quizartinib (AC220), Quizartinib] |  |
| -1 | 0.8 |  |  | COC(=O)[C@]12CCC(C)(C)C[C@H]1[C@H]1C(=O)C=C3[C@@]4(C)C=C(C#N)C(=O)C(C)(C)[C@@H]4CC[C@@]3(C)[C@]1(C)CC2 [Bardoxolone Methyl] |  |
|  |  | 0.1 | -0.2 | COc1ccc(F)c(F)c1C(=O)c1cnc(NC2CCN(S(C)(=O)=O)CC2)nc1N [R547] |  |
| 2.2 | 0.2 |  |  | COc1cccc2cc(-c3nc([C@H]4CC[C@H](C(=O)O)CC4)n4ncnc(N)c34)[nH]c12 [OSI-027] |  |
| 1.3 | 0.1 |  |  | CNC(=O)c1ccc(C)c(-n2c(C)cc(OCc3ccc(F)cc3F)c(Br)c2=O)c1 [PH-797804] |  |
| -0.3 | 0.6 |  |  | [H]/N=C(/N)N/C(=N/[H])NCCc1ccccc1 [Phenformin HCl] |  |
| -0.7 | 1.5 |  |  | CCOc1cc2ncc(C#N)c(Nc3ccc(F)c(Cl)c3)c2cc1NC(=O)/C=C/CN(C)C [Pelitinib (EKB-569), Pelitinib] |  |
| 0.7 | 1.8 |  |  | Cc1cc([C@@H](C)Nc2ccccc2C(=O)O)c2nc(N3CCOCC3)cc(=O)n2c1 [AZD6482] |  |
|  |  | 0.9 | 2.4 | N#Cc1c(O)c2c(-c3ccc(-c4ccccc4O)cc3)csc2[nH]c1=O [A-769662] |  |
|  |  | 0.7 | 4.2 | O=C(NC(NC(=S)Nc1ccc(F)c([N+](=O)[O-])c1)C(Cl)(Cl)Cl)C(c1ccccc1)c1ccccc1 (stereo not shown) [CGK 733] |  |
| -0.2 | 0 |  |  | CC(=O)Nc1cccc(-n2c(=O)n(C3CC3)c(=O)c3c(Nc4ccc(I)cc4F)n(C)c(=O)c(C)c32)c1 [Trametinib (GSK1120212), Trametinib] |  |
|  |  | 1.5 | 0.2 | Fc1cc(-c2cccc3ncc(-c4cnn(C5CCNCC5)c4)nc23)cc(F)c1CN1CCOCC1 [NVP-BSK805 2HCl] |  |
|  |  | -0.1 |  | COc1ccc(Cl)c(Nc2nc3ccccc3nc2NS(=O)(=O)c2cccc(NC(=O)C(C)(C)N)c2)c1 [XL147] | TM Shift LIMK2 (K) [2, 4]: 0.6 K |
| 2.2 | 3.8 |  |  | CN1CCN(c2ccc3nc(-c4c(N)c5c(F)cccc5[nH]c4=O)[nH]c3c2)CC1 [Dovitinib (TKI-258) Dilactic Acid, Dovitinib] |  |
| 0.8 | 0.3 |  |  | Cc1cc2c(F)c(Oc3ncnn4cc(OC[C@@H](C)O)c(C)c34)ccc2[nH]1 [Brivanib (BMS-540215), Brivanib] |  |
| -0.2 | -0.1 |  |  | O=c1cc(-c2cccc3c2Sc2ccccc2S3)oc(N2CCOCC2)c1 [KU-55933 (ATM Kinase Inhibitor)] |  |
|  |  | -0.5 | -0.5 | CC(C)(C#N)c1ccc(N2C(=O)OCc3cnc4ccc(-c5cnc6ccccc6c5)cc4c32)cc1 [ETP-46464] |  |
|  |  | 0.7 | 0.2 | Cc1ccc(NC(=O)c2cccc(N(C)C)c2)cc1NC(=O)c1ccc(O)cc1 [ZM 336372] |  |
|  |  | 0.1 | 0.8 | COc1cc2c(Nc3ccc(NC(=O)c4ccccc4)cc3)ncnc2cc1OCCCN1CCOCC1 [ZM 447439] |  |
| 2.7 | 1.6 |  |  | COc1cc(OC)c(/C=C/S(=O)(=O)Cc2ccc(OC)c(NCC(=O)O)c2)c(OC)c1 [Rigosertib (ON-01910), Rigosertib] |  |
|  |  | -1.2 | 0.8 | NCC(=O)Nc1ccc(-n2nc(C(F)(F)F)cc2-c2ccc3c(ccc4ccccc43)c2)cc1 [OSU-03012 (AR-12)] |  |
| -0.5 | 0.5 |  |  | CNCc1ccc(-c2cc(-c3nc(-c4ccc(S(=O)(=O)C(C)C)cc4)cnc3N)on2)cc1 [VE-822] |  |
|  |  | 0.7 | 1.7 | CC(C)c1cnn2c(NCc3ccccc3)cc(NCCCCCCN)nc12.Cl [BS-181 HCl] |  |

| SMILES | ΔTm at 10 µM [1] [°C] | ΔTm at 10 µM [2, 3] [°C] | TM Shift LIMK1 (K) [1] [K] | TM Shift LIMK2 (K) [2, 3] [K] | other results |
| --- | --- | --- | --- | --- | --- |
| CCN1CCN(C(=O)Cc2ccc(Nc3ncc(F)c(Nc4ccc(C(=O)Nc5ccccc5Cl)cc4)n3)cc2)CC1 [Aurora A Inhibitor I] |  |  | 4.9 | 3.7 |  |
| CCOc1cc2ncc(C#N)c(Nc3ccc(OCc4ccccn4)c(Cl)c3)c2cc1NC(=O)/C=C/CN(C)C [Neratinib (HKI-272), Neratinib] | 0.2 |  |  |  | ΔTm at 10 µM [2]: 1 °C |
